Measurements reported in US11964973B2 (priority 2019, dated 2024).
pEC50, pIC50: −log10 of the molar value. Like-named read-outs stand apart in the source and are kept apart here.

Tests used:
[1] = system: Human venous whole blood (IFN-γ); assay: Human whole blood IFN-γ assay; format: cell-based
Description: Assay 10: Human Whole Blood IFN-γ Assay
Human venous whole blood (22.5 μL per well), obtained from healthy donors, was pre-treated with compounds for one hour at 37° C. in a humidified 95% air/5% CO2 incubator. The blood was stimulated with 2.5 μL anti-human CD3 and anti-CD28 mAb at a final concentration of 1 μg/mL each for 24 hours at 37° C. IFN-γ in the supernatants was measured using AlphLISA kit (Cat #AL217).

[2] = system: human venous whole blood, CD8 positive population (pERK); assay: DGK human whole blood pERK assay; format: cell-based; settings: for pIC50: read-out: DGK HWB pERK IC50; for pEC50: human whole blood pERK, read-out: DGK HWB
In short: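 Heparinized whole blood from healthy donors preincubated with compound 1 hour at 37° C. Stimulation used anti-CD3 at 1 μg/mL final plus cross-linking goat anti-mouse IgG for 15 minutes. Flow cytometry scored percentage pERK-positive cells among CD8-positive cells.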

human DGKζ = human DGKζ (Homo sapiens (Human), UniProt Q13574); assay: biochemical; format: biochemical; settings: Table A; liposome (LIPGLO) assay; read-out: DGKζ
human DGKζ, sequence (Q13574 whole entry, looked up): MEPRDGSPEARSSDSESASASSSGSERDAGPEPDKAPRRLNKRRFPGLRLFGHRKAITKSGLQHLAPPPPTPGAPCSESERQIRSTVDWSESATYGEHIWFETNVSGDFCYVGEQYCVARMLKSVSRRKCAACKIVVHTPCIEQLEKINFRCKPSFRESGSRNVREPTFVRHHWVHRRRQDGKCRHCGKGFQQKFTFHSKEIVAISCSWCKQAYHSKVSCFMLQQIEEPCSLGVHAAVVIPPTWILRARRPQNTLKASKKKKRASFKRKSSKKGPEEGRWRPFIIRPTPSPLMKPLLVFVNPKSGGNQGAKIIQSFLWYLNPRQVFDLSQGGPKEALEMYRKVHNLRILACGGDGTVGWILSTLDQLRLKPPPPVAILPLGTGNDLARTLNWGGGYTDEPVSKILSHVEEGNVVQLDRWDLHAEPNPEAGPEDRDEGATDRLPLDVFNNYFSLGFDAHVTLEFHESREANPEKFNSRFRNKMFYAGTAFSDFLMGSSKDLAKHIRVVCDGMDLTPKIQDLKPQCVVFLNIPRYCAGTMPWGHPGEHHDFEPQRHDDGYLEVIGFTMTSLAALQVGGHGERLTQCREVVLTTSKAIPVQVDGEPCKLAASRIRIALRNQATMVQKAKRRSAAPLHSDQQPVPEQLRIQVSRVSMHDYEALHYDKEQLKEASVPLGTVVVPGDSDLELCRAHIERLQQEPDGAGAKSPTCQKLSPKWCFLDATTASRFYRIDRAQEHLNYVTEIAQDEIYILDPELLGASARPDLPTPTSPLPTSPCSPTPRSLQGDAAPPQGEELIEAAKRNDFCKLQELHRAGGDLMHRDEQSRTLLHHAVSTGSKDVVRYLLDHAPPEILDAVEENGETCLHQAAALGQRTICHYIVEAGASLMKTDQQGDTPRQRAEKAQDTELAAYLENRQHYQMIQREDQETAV

[3] = Homo sapiens, 24 h, human whole blood, anti-CD3 plus anti-CD28, 24 hours, read-out: INFg Whole Blood Normalized Agonist EC50
[4] = human whole blood, CD8 positive population
[5] = human whole blood IFN-γ, read-out: INFg Whole Blood

Row | SMILES | pIC50 [2, 4] | pEC50 [1, 5] | pEC50 ([2]; Homo sapiens, CD8 positive) | further results
1 | C[C@@H]1CN(c2cc(=O)n(C)c3ccc(C#N)nc23)CC[C@H]1Oc1ccc(C(F)(F)F)cc1 (racemic) [Example 97, 5-methyl-8-((3R,4R)-3-methyl-4-(4-(trifluoromethyl)phenoxy)piperidin-1-yl)-6-oxo-5,6-dihydro-1,5-naphthyridine-2-carbonitrile] | 5.52 |  |  | pEC50 [1, 3]: 5.72
2 | CC(C)c1cccc(O[C@H]2CCN(c3cc(=O)n(C)c4ccc(C#N)nc34)C[C@H]2C)n1 (single isomer, unassigned) [Example 216] |  | 5.85 | 4.85 | 
3 | CC(C)Oc1ccc(O[C@@H]2CCN(c3cc(=O)n(C)c4ccc(C#N)nc34)C[C@H]2C)nc1 (single isomer, unassigned) [Example 201] |  | 6.04 |  | pEC50 [2]: 5.41
4 | CC[C@@H]1CN(c2cc(=O)n(C)c3ccc(C#N)nc23)CC[C@H]1Oc1ccc(C(F)(F)F)cc1 (single isomer, unassigned) [Example 147] | 6.21 |  |  | pEC50 ([1]; human whole blood, anti-CD3 plus anti-CD28, 24 hours, read-out: INFg Whole Blood Normalized Agonist EC50): 5.92
5 | C[C@@H]1CN(c2cc(=O)n(C)c3ccc(C#N)nc23)CC[C@@H]1Oc1ccc(C(F)(F)F)cc1 (single isomer, unassigned) [Example 187, 5-methyl-8-(cis-3-methyl-4-(4-(trifluoromethyl)phenoxy)piperidin-1-yl)-6-oxo-5,6-dihydro-1,5-naphthyridine-2-carbonitrile (rel)] |  | 5.77 | 5.74 | 
6 | CC[C@@H]1CN(c2cc(=O)n(C)c3ccc(C#N)nc23)CC[C@H]1Oc1ccc(OC(C)C)cn1 (single isomer, unassigned) [Example 194] |  | 5.74 |  | pIC50 (human DGKζ): 5.74; pEC50 [2]: 5.52
7 | CC(C)Oc1ccc(O[C@H]2CCN(c3cc(=O)n(C)c4ccc(C#N)nc34)C[C@H]2C)nc1 (racemic) [Example 228, (+/−) 8-(cis-4-((5-isopropoxypyridin-2-yl)oxy)-3-methylpiperidin-1-yl)-5-methyl-6-oxo-5,6-dihydro-1,5-naphthyridine-2-carbonitrile] |  |  | 5.82 | pEC50 ([1]; Homo sapiens, human whole blood IFN-γ, read-out: INFg Whole Blood): 5.96
8 | C[C@@H]1CN(c2cc(=O)n(C)c3ccc(C#N)nc23)CC[C@H]1Oc1ccc(F)c(F)c1 (racemic) [Example 103, 8-((3R,4R)-4-(3,4-difluorophenoxy)-3-methylpiperidin-1-yl)-5-methyl-6-oxo-5,6-dihydro-1,5-naphthyridine-2-carbonitrile] | 5.26 |  |  | pEC50 [1, 3]: 5.82
9 | CCO[C@@H]1CN(c2cc(=O)n(C)c3ccc(C#N)nc23)CC[C@H]1Oc1cccc(C(F)(F)F)c1 [Example 263, 8-((3R,4R)-3-ethoxy-4-(3-(trifluoromethyl)phenoxy)piperidin-1-yl)-5-methyl-6-oxo-5,6-dihydro-1,5-naphthyridine-2-carbonitrile] |  | 6.74 | 6.70 | 
10 | C[C@@H]1CN(c2cc(=O)n(C)c3ccc(C#N)nc23)CC[C@@H]1Oc1ccc(C(C)(C)C)cc1 (racemic) [Example 175, 8-((3R,4S)-4-(4-(tert-butyl)phenoxy)-3-methylpiperidin-1-yl)-5-methyl-6-oxo-5,6-dihydro-1,5-naphthyridine-2-carbonitrile] | 6.10 |  |  | pEC50 [1, 3]: 5.85
11 | CC[C@@H]1CN(c2cc(=O)n(C)c3ccc(C#N)nc23)CC[C@@H]1Oc1cccc(C(C)C)c1 [Example 164, 8-((3R,4S)-3-ethyl-4-(3-isopropylphenoxy)piperidin-1-yl)-5-methyl-6-oxo-5,6-dihydro-1,5-naphthyridine-2-carbonitrile] |  |  |  | pEC50 ([1]; Homo sapiens, 24 h, read-out: INFg Whole Blood Normalized Agonist EC50, human whole blood, anti-CD3 plus anti-CD28, 24 hours): 6.10; pIC50 ([2]; Homo sapiens, CD8 positive): 5.29
12 | CC[C@@H]1CN(c2cc(=O)n(C)c3ccc(C#N)nc23)CC[C@H]1Oc1ccc(OC(C)C)cn1 (single isomer, unassigned) [Example 193] |  | 6.43 |  | pIC50 (human DGKζ): 5.66; pEC50 [2]: 6.40
